# From article PMC8451604, “Rational formulation engineering of fraxinellone utilizing 6-O-α-D-maltosyl-β-cyclodextrin for enhanced oral bioavailability and hepatic fibrosis therapy” (Drug Delivery, 2021)
# What was measured:
# [1] = Blood biochemical assay (hematological parameters); type: in vivo, Kunming male mice; conditions: mice
# Description: (§1) The Kunming male mice (weight of 28–30 g) were divided into 10 groups (n = 10): normal group, Frax or G2-β-CD-Frax treatment groups with a Frax dose of 5, 10, and 20 mg/kg, respectively, G2-β-CD solution treatment (equivalent to 20 mg/kg of G2-β-CD-Frax) group. Drug treatment continued every day for 7 weeks. One day after the last administration, blood and major tissues (heart, liver, spleen, lung, and kidney) were obtained from the blank group and drug-treated groups (20 mg/kg) for histological examination. The whole blood was directly analyzed using an automatic blood cell analyzer to obtain hematological parameters. The collected tissues were subjected to histological examination.
# [2] = Safety evaluation for seven weeks, histological examination (H&E); type: in vivo, Kunming male mice; conditions: mice, oral daily for 7 weeks, 20 mg/kg or equivalent G2-β-CD
# Description: as §1
# [3] = Phase solubility study of Frax with CDs; type: physicochemical; conditions: 37 °C, from phase solubility curves
# Description: Frax was excessively mixed with increasing molar concentrations (0–350.00 mM) of each CD aqueous solution. […] The samples were subjected to HPLC analysis after centrifugation (4024.8 g, 10 min). Phase solubility profiles were plotted by monitoring Frax concentration as a function of the molar concentration of each CD. Based on the phase solubility curves, we calculated the apparent stability constants (Kc, L/mol) according to Equation (1): (1) Kc=Slope/S0(1−Slope) where S0 is the water solubility of Frax at equilibrium.
# Caco-2 cells = test: Cytotoxicity in Caco-2 cells (MTT assay); type: cell-based; conditions: 4 h
# Description: (§2) Cytotoxicity effects and cellular uptake ability of Frax, CDs, and CDs-Frax complexes were examined using Caco-2 cells. […] Each CD solution was also used to determine whether the cell toxicity was caused by Frax or CDs. For cellular uptake studies, Caco-2 cells were treated with Frax and CDs-Frax (100 μg/mL) for 0.5, 1, and 2 h, respectively. For P-gp inhibition evaluation, the cells were pretreated with verapamil at a concentration of 100 μg/mL and further treated with each drug or formulation. Thereafter, the cells were washed and replenished with fresh PBS (300 μL). The cell lysate was prepared by three cycles of freeze-thaw. Protein concentration in the samples was quantified by the BCA kit while the Frax concentration was determined by HPLC.
# [4] = Cytotoxicity in Caco-2 cells (MTT assay); type: cell-based; conditions: human, Caco-2 cells; Caco-2, 300 μg/mL, 4 h; read-out: cell viability (cells remained viable)
# Description: as §2
# [5] = 7 weeks, colchicine group (0.2 mg/kg), in % (unit assumed)
# [6] = 7 weeks, colchicine group (0.2 mg/kg), in fL (unit assumed)
molecule,measurement,setting,value
"COc1cc2c(c(OC)c1OC)-c1ccc(OC)c(=O)cc1[C@@H](NC(C)=O)CC2 [Colchicine, colchicine, reference compound]",MCHC (mean corpuscular hemoglobin concentration),[1]; 7 weeks,341.86 ± 9.91
same,PDW (platelet distribution width),[1]; 7 weeks,14.99 ± 0.22
same,PLT (platelet),"[1]; 7 weeks, colchicine group (0.2 mg/kg), in 10^9/L (unit assumed)",1363.86 ± 333.63
same,HCT (haematocrit),[1]; [5],39.06 ± 2.62
same,RDW-CV (red cell volume distribution width),[1]; [5],16.24 ± 1.60
same,MCV (mean cell volume),[1]; [6],43.09 ± 2.97
same,MPV (meanplateletvolume),[1]; [6],6.80 ± 0.51
same,RDW-SD,[1]; [6],29.86 ± 4.02
same,HGB (hemoglobin),"[1]; 7 weeks, colchicine group (0.2 mg/kg), in g/L (unit assumed)",133.57 ± 9.50
same,MCH (mean corpuscular hemoglobin),"[1]; 7 weeks, colchicine group (0.2 mg/kg), in pg (unit assumed)",14.71 ± 0.70
same,WBC (white blood cell),"[1]; 7 weeks, in 10^9/L (unit assumed)",9.61 ± 4.41
same,RBC (red blood cell),"[1]; 7 weeks, in 10^12/L (unit assumed)",9.13 ± 1.01
"OC[C@H]1O[C@H](O[C@H]2[C@H](O)[C@@H](O)[C@@H](OC[C@H]3O[C@@H]4O[C@H]5[C@H](O)[C@@H](O)[C@@H](O[C@H]6[C@H](O)[C@@H](O)[C@@H](O[C@H]7[C@H](O)[C@@H](O)C(O[C@H]8[C@H](O)[C@@H](O)[C@@H](O[C@H]9[C@H](O)[C@@H](O)[C@@H](O[C@H]%10[C@H](O)[C@@H](O)[C@@H](O[C@H]3[C@H](O)[C@H]4O)O[C@@H]%10CO)O[C@@H]9CO)O[C@@H]8CO)O[C@@H]7CO)O[C@@H]6CO)O[C@@H]5CO)O[C@@H]2CO)[C@H](O)[C@@H](O)[C@@H]1O [G2-β-CD, 6-O-α-D-maltosyl-β-cyclodextrin]",changes in blood biochemical assay (in words),[1]; oral daily for 7 weeks,no obvious changes
same,H&E staining of major tissues,[2],no inflammation and no cellular damage
same,apparent stability constant (Kc) for Frax complexation,[3],997.68 M⁻¹
same,cell viability (cells remained viable),"Caco-2 cells; Caco-2, 300 μg/mL",over 85%
"CC(O)COC[C@H]1O[C@@H]2O[C@H]3[C@H](O)[C@@H](O)[C@@H](O[C@H]4[C@H](O)[C@@H](O)[C@@H](O[C@H]5[C@H](O)[C@@H](O)[C@@H](O[C@H]6[C@H](O)[C@@H](O)[C@@H](O[C@H]7[C@H](O)[C@@H](O)[C@@H](O[C@H]8[C@H](O)[C@@H](O)[C@@H](O[C@H]1[C@H](O)[C@H]2O)O[C@@H]8COCC(C)O)O[C@@H]7COCC(C)O)O[C@@H]6COCC(C)O)O[C@@H]5COCC(C)O)O[C@@H]4COCC(C)O)O[C@@H]3COCC(C)O (stereo partly drawn) [HP-β-CD, 2-hydroxypropyl-β-cyclodextrin]",apparent stability constant (Kc) for Frax complexation,[3],807.32 M⁻¹
same,"viability at 4 h, 300 μg/mL",[4],> 85%
"OC[C@H]1O[C@@H]2O[C@H]3[C@H](O)[C@@H](O)[C@@H](O[C@H]4[C@H](O)[C@@H](O)[C@@H](O[C@H]5[C@H](O)[C@@H](O)[C@@H](O[C@H]6[C@H](O)[C@@H](O)[C@@H](O[C@H]7[C@H](O)[C@@H](O)[C@@H](O[C@H]8[C@H](O)[C@@H](O)[C@@H](O[C@H]1[C@H](O)[C@H]2O)O[C@@H]8CO)O[C@@H]7CO)O[C@@H]6CO)O[C@@H]5CO)O[C@@H]4CO)O[C@@H]3CO [β-CD, β-cyclodextrin]",apparent stability constant (Kc) for Frax complexation,[3],109.34 M⁻¹
Sulfobutyl ether-β-cyclodextrin [SBE-β-CD],apparent stability constant (Kc) for Frax complexation,[3],168.20 M⁻¹
same,cell viability,"Caco-2 cells; Caco-2, 200 and 300 μg/mL",lower than 80%
